In patent EP4380572B1, “FORMULATION FOR SUBSTITUTED 2-AMINOTHIAZOLES IN THE TREATMENT OF FUNGAL AND FUNGAL-BACTERIAL INFECTIONS OF THE NAIL” (OnychoPharm GmbH, priority 2021, dated 2023):

Key:
[1] = Solubility of abafungin in different solvents (saturated solution, UV at 302 nm); format: physicochemical; details: shaken 24 h, 19°C
Description: 2 ml of solvent were placed in a glass vial containing abafungin powder. The vial was mechanically shaken for 24 h in an environment with controlled temperature (19°C). Thereafter the content of the vials was transferred into Eppendorf tubes and centrifuged at 13000 rpm for 3 min. The supernatant (saturated solution) was collected and assayed using a UV spectrometer at 302 nm (λmax of abafungin). […] Drug concentration in the saturated solution (or diluted solution) was then determined using a standard curve (Table 2). Each experiment was conducted in triplicates. […]

[2] = cited from earlier work; for stability of the crystalline form: anhydrate polymorphic crystalline forms described in EP 0 718 296 A1

| Structure (SMILES) | Solubility mg/100 ml mean ± standard deviation ([1]; solvent 1,2-propanediol) [mg/100 ml] | Solubility mg/100 ml mean ± standard deviation ([1]; solvent DMSO) [mg/100 ml] | Solubility mg/100 ml mean ± standard deviation ([1]; solvent N-methyl pyrrolidone) [mg/100 ml] | Solubility mg/100 ml mean ± standard deviation ([1]; solvent PEG600) [mg/100 ml] | Solubility mg/100 ml mean ± standard deviation ([1]; solvent butyl acetate) [mg/100 ml] | Solubility mg/100 ml mean ± standard deviation ([1]; solvent ethanol) [mg/100 ml] | Solubility mg/100 ml mean ± standard deviation ([1]; solvent ethyl acetate) [mg/100 ml] | Solubility mg/100 ml mean ± standard deviation ([1]; solvent isopropanol myristate) [mg/100 ml] | Solubility mg/100 ml mean ± standard deviation ([1]; solvent isopropanol) [mg/100 ml] | Solubility mg/100 ml mean ± standard deviation ([1]; solvent water) [mg/100 ml] | stability of the crystalline form [2] | stability at high humidity ([2]; 85% relative humidity, over months) |
| --- | --- | --- | --- | --- | --- | --- | --- | --- | --- | --- | --- | --- |
| Cc1ccc(Oc2ccccc2-c2csc(N=C3NCCCN3)n2)c(C)c1 [abafungin, 4-[2-(2,4-dimethylphenoxy)phenyl]-N-(1,4,5,6-tetrahydropyrimidin-2-yl)-1,3-thiazol-2-amine] | 219.93 ± 12.10 | 4483.42 ± 16.30 | 27678.92 ± 434.07 | 5029.70 ± 12.70 | 822.13 ± 2.55 | 238.46 ± 2.72 | 803.75 ± 35.51 | 50.60 ± 4.30 | 156.14 ± 16.5 | < 0.032 |  |  |
| Cc1ccc(Oc2ccccc2-c2csc(N=C3NCCCN3)n2)c(C)c1 [modification 1] |  |  |  |  |  |  |  |  |  |  | metastable |  |
| Cc1ccc(Oc2ccccc2-c2csc(N=C3NCCCN3)n2)c(C)c1 [modification 2] |  |  |  |  |  |  |  |  |  |  | photochemically and thermodynamically more stable | stable |
